Read-outs that look alike come from different tables or passages of the source.

What is called IC50 is the midpoint of a concentration-inhibition curve. By efflux ratio is commonly meant the permeability from basolateral to apical divided by that in the opposite direction, in the common usage.

Series [1] deals with SAE1 (Homo sapiens (Human), UniProt Q9UBT2). Briefly: SAE High Throughput Biochemical Assay (HTRF), 15 min preincubation. The note with it: SAE1 12.5 nM, ATP 100 μM. Summed up:
(§1)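 HTRF detection of SUMO transfer from SUMO-GST to UBC9-His (40 nM each) by SAE1 at 12.5 nM used 100 μM ATP in pH 7.5 HEPES buffer with 10 mM MgCl2 and 0.1% BSA. Enzyme and compound were preincubated 15 min at RT and the reaction ran 45 min, with readings after 2 h and overnight.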
On the technique in general: In TR-FRET formats the signal depends on donor and acceptor labels being close together.

Series [2] deals with sumoylation levels (SUMO 2/3 conjugates) in HCT-116 cells. Nature of the series: HCT-116 4 Hour Cell Assay (Western, SUMO 2/3 conjugates). Conditions: 4 h treatment, Anti-Sumo 2-3 immunoblot, read-out: HCT-116 Western 4 h IC50 (μM) Ave. The format is cell-based. In a few lines:
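IC50 derived from fluorescent immunoblot quantification of SUMO 2/3 conjugate bands, normalized to total protein, after non-reducing SDS-PAGE. Lysis used RIPA plus NEM; exposure was 4 h across 11 concentrations, three-fold serial dilution starting at 25 μM.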

A short description of series [3]: Plasma protein binding, equilibrium dialysis, mouse plasma. The format is in vitro ADME. The note with it: 5 hours at 37° C., read-out: PPB % bound Mouse (converted). Here is the method:
(§2) The compounds of interest were evaluated for various PK parameters. Specifically CACO permeability/efflux and plasma protein binding (PPP) were determined. Stock solutions were prepared at 10 mM in DMSO for test and reference compounds. Aliquots of the stock solution were diluted to 500× of final concentration (0.5 mM) with DMSO, then further diluted upon the addition of bank PE3-buffer to 20× of final concentration (20 μM). Then test and reference compounds were prepared in plasma at 1 μM. For 0 hour incubation: 25 μL of the plasma spiked with test and reference compounds was transferred into a 96-well sample preparation plate, and then 25 μL blank PB-buffer was added. The samples were quenched by 200 μL of IS solution to prepare [Initial]0h samples. For 5 hours incubation: 100 μL of the plasma spiking with test and reference compounds was loaded on donor side, and 100 μL of blank PB-buffer were loaded on receiver side of the equilibrium dialysis device. Samples were incubated in an air-bath shaker (60 rpm) for 5 hours at 37° C. After 5 hours incubation, 25 μL of samples (from both the donor sides and receiver sides of the dialysis apparatus) was aspirated and added into new sample preparation plates, separately. 25 μL of blank PB-buffer was added to donor side samples and 25 μL of blank plasma was added to receiver side samples to balance the matrix. The samples were quenched with 200 μL of IS solution. The assay plate was shaken at the vibrator (Hangzhou Allsheng, MX100-4A) for 10 min (600 rpm) and then centrifuged at 5,594×g for 15 min (Thermo Multifuge×3R). An aliquot of the 50 μL supernatant was taken from each well and diluted by 50 μL distilled water, then analyzed by UPLC-MS/MS.
Background: In equilibrium dialysis free small molecules cross a membrane that holds back macromolecules.

The nature of series [4]: Plasma protein binding, equilibrium dialysis, human plasma. The format is in vitro ADME. Conditions: 5 hours at 37° C., read-out: PPB % bound Human (converted). Here is the method: as §2
Series [5] is described as follows: Caco-2 permeability/efflux. It counts as in vitro ADME. Conditions: human, Caco-2, pH 7.4; B-A / A-B. The method, then:
(§3) Caco-2 cells were obtained from American Tissue Culture Collection (Rockville, MD). The cells were maintained in Modified Eagle's medium (MEM), containing 10% heat-inactivated fetal bovine serum (FBS), and 1% non-essential amino acids, in CO2 at 37° C. Cells were seeded on polycarbonate filter inserts (Millipore, CAT #PSHT 010 R5). The cells were cultured for 21-28 days prior to the permeability experiments. The Lucifer Yellow permeability was checked before and after the assay. Compounds were dissolved at 10 mM in 100% dimethyl sulfoxide (DMSO) and diluted for studies in Hanks Balanced Salt Solution (HBSS, Invitrogen, Cat #14025-092) with 25 mM HEPES, pH 7.4. Compounds were tested at 10 µM in both the apical-to-basolateral (A-B) and basolateral-to-apical (B-A) directions, incubations were conducted at 37° C. for 90 min. At the end of incubation, samples were diluted by assay buffer, and analyzed by LC-MS/MS. The concentrations of the compounds were quantified by standard curve. The first comparator example (Comp. Ex. 1) is the chloro substituted thienodihydropyridine
On the technique in general: Passage across Caco-2 layers is used to estimate intestinal permeability.

The test system of series [6] is Caco-2 cells. Nature of the series: Caco-2 permeability/efflux. The format is in vitro ADME. Conditions: 10 uM, 37° C., 90 min, pH 7.4. The method, then: as §3
The target in series [7] is SAE1 (Homo sapiens (Human), UniProt Q9UBE0+Q9UBT2). Nature of the series: SAE High Throughput Biochemical Assay (HTRF), 15 min preincubation. Conditions: read-out: 15 min preincubation HTRF IC50 (μM) Ave, SAE1 12.5 nM, ATP 100 μM. In a few lines:
as §1

Series [8] in a line: Plasma protein binding, equilibrium dialysis, dog plasma. The format is in vitro ADME. Conditions: 5 hours at 37° C., read-out: PPB % bound Dog (converted). The method, then: as §2
Series [9] can be described thus: Plasma protein binding, equilibrium dialysis, rat plasma. It counts as in vitro ADME. Conditions: 5 hours at 37° C., read-out: PPB % bound Rat (converted). Here is the method: as §2

SAE1 (Homo sapiens (Human), UniProt Q9UBT2), sequence (Q9UBE0 whole entry): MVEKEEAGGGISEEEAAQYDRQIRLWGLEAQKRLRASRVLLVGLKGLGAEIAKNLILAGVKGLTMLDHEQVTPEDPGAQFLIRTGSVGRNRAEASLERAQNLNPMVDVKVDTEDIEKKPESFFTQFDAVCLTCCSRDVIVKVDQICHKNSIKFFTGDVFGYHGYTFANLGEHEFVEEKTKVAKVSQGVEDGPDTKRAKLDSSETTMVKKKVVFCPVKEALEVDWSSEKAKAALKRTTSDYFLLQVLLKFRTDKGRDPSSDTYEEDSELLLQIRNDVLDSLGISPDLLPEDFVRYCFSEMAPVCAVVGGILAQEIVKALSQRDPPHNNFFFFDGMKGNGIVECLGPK
SAE1 (Homo sapiens (Human), UniProt Q9UBT2), sequence (Q9UBT2 whole entry): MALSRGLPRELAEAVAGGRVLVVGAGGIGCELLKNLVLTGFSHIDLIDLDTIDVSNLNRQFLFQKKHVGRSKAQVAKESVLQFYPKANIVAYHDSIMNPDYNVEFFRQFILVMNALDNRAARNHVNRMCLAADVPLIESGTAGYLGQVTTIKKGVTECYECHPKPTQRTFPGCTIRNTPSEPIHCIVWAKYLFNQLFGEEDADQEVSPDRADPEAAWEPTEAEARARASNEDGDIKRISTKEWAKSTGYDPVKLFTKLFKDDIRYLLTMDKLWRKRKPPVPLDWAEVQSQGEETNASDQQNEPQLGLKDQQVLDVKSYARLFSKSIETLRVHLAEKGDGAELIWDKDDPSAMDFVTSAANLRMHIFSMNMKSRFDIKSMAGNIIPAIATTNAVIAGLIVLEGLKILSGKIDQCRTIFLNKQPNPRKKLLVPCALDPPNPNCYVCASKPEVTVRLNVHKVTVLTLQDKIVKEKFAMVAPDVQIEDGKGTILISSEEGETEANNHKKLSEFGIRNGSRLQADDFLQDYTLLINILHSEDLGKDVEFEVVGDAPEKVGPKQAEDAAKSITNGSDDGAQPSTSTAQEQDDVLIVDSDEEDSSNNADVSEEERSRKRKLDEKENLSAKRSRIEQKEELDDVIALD
SAE1 (Homo sapiens (Human), UniProt Q9UBE0+Q9UBT2), sequence (Q9UBE0 whole entry): as the sequence (Q9UBE0 whole entry) above
SAE1 (Homo sapiens (Human), UniProt Q9UBE0+Q9UBT2), sequence (Q9UBT2 whole entry): as the sequence (Q9UBT2 whole entry) above

As to `CCn1cc(-c2ccccc2[C@@H]2CN(C(=O)/C=C/CNC)Cc3sc(C#N)cc32)c(C(F)(F)F)n1` [Example 12, (S, E)-4-(2-(1-Ethyl-3-(trifluoromethyl)-1 H-pyrazol-4-yl)phenyl)-6-(4-(methylamino)but-2-enoyl)-4,5,6,7-tetrahydrothieno[2,3-c]pyridine-2-carbonitrile], the IC50 in series [1] stood at 3330 nM; in series [2] (Homo sapiens, HCT-116, 4 h), 0.353 µM. The fraction unbound at 5 h, 1 μM in series [3] was 0.035; in series [4], 0.049. Besides, the efflux ratio at 90 min, 10 μM in series [5] turned out to be 5. For the same compound, the figures for the Caco-2 apparent permeability (Papp) in series [6] (apical-to-basolateral) and in series [6] (basolateral-to-apical) were 5 10^-6 cm/s and 58 10^-6 cm/s, respectively.
On to `CCn1cc(-c2c(F)cccc2[C@@H]2CN(C(=O)/C=C/CN(C)C)Cc3sc(C#N)cc32)c(C(F)(F)F)n1` [Example 215, (S,E)-6-(4-(dimethylamino)but-2-enoyl)-4-(2-(1-ethyl-3-(trifluoromethyl)-1 H-pyrazol-4-yl)-3-fluorophenyl)-4,5,6,7-tetrahydrothieno[2,3-c]pyridine-2-carbonitrile], for which the IC50 was determined as 1.35 µM in series [7] and 0.0856 µM in [2] (Homo sapiens, HCT-116, 4 h). The fraction unbound at 5 h, 1 μM in [3] was 0.023; in series [4], 0.04; in series [8], 0.02. Further, in series [5], the efflux ratio at 90 min, 10 μM was 1. For the same compound, the Caco-2 apparent permeability (Papp) is 15 10^-6 cm/s in [6] (apical-to-basolateral) and 20 10^-6 cm/s in series [6] (basolateral-to-apical).
With `CCn1cc(-c2c(F)cccc2[C@@H]2CN(C(=O)/C=C/CNC)Cc3sc(C#N)c(C)c32)c(C(F)(F)F)n1` [Example 217, (S, E)-4-(2-(1-ethyl-3-(trifluoromethyl)-1 H-pyrazol-4-yl)-3-fluorophenyl)-3-methyl-6-(4-(methylamino)but-2-enoyl)-4,5,6,7-tetrahydrothieno[2,3-c]pyridine-2-carbonitrile], the half-inhibitory concentration (IC50) is 0.13 µM in series [7]; 150 nM in [1]; 0.18 µM in [2]; 0.101 µM in series [2] (Homo sapiens, HCT-116, 4 h). Further, the fraction unbound at 5 h, 1 μM in series [3] is 0.026; in series [9], 0.051; in series [4] it was 0.028; in series [8], 0.013. Moreover, the efflux ratio at 90 min, 10 μM in series [5] was 2. In addition, the results for the Caco-2 apparent permeability (Papp) in series [6] (apical-to-basolateral) and in [6] (basolateral-to-apical) were 6 10^-6 cm/s and 14 10^-6 cm/s, respectively.

The values are drawn from patent US20240360148A1 (SUVALENT THERAPEUTICS, INC., priority 2021, published 2024).
